The values below come from patent US20050233058A1, “Aminoacid derivatives of dicarboxylic acids as flavor ingredients” (priority 2004, published 2005).

This experiment can be described thus: Organoleptic description of the compounds (umami, mouthfeel). Conditions: for Additional feeling imparted: in a meet type application.

On to `O=C(O)CCCC(=O)N[C@@H](CCC(=O)O)C(=O)O` [glutaryl-Glu, N-(4-carboxybutanoyl)L-glutamic acid], for which the Additional feeling imparted entry is “slightly more fatty feeling”.
Regarding `CC(C)C[C@H](NC(=O)CCC(=O)O)C(=O)O` [succinoyl-Leu, N-(3-carboxypropionyl)leucine], the “Taste / organoleptic character of the compound” value is “slightly more acidic and slightly less umami taste than the one of succinoyl-Glu”.
For `O=C(O)CCC(=O)N[C@@H](CCC(=O)O)C(=O)O` [succinoyl-Glu, N-(3-carboxypropionyl)-glutamic acid], the “Taste / organoleptic character of the compound” value is “slightly acidic note together with a well perceivable umami taste or character having a broth connotation”.
For the molecule `O=C(O)/C=C\C(=O)N[C@@H](CCC(=O)O)C(=O)O` [Maleyl-Glu, (Z)-N-(3-carboxy-2-propenoyl)-L-glutamic acid], the Additional feeling imparted result was “slightly more juicy feeling”.
On to `CC(C)C[C@H](NC(=O)CCCC(=O)O)C(=O)O` [Glutaryl-Leu, N-(4-carboxybutanoyl)-L-leucine], for which the Additional feeling imparted entry was “slightly more fatty feeling”.
